pEC50: −log10 of the molar value.
Assays:
[1] = target: SFV nsP4 (RdRp) with SFV P123, trans-replicase (Semliki Forest virus, UniProt P08411); experiment: trans-replicase Gaussia luciferase reporter assay in transfected U-2 OS cells; type: cell-based
[2] = target: CHIKV nsP4 (RdRp) with SFV P123, mixed trans-replicase (Chikungunya virus strain S27-African prototype, UniProt Q8JUX6); experiment: cell-based
CHIKV nsP4 (RdRp) with SFV P123, mixed trans-replicase, sequence (Q8JUX6 1864-2474): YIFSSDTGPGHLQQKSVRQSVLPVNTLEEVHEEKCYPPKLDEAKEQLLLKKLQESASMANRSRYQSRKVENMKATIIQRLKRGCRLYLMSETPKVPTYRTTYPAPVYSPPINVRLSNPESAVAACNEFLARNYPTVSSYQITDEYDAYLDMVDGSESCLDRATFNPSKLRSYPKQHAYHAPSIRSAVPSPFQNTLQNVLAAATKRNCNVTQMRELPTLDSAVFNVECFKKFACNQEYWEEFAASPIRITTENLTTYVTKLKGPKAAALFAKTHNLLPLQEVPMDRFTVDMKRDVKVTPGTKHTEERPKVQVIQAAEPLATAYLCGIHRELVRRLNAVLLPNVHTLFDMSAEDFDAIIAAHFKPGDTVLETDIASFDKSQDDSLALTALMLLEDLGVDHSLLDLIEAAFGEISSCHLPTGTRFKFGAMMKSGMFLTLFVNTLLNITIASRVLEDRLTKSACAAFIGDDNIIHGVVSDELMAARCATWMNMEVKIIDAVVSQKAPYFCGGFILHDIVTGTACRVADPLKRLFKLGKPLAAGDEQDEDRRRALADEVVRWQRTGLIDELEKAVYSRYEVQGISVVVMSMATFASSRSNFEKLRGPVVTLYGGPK
CHIKV nsP4 (RdRp) with SFV P123, mixed trans-replicase, sequence (P08411 1-1818, further chain): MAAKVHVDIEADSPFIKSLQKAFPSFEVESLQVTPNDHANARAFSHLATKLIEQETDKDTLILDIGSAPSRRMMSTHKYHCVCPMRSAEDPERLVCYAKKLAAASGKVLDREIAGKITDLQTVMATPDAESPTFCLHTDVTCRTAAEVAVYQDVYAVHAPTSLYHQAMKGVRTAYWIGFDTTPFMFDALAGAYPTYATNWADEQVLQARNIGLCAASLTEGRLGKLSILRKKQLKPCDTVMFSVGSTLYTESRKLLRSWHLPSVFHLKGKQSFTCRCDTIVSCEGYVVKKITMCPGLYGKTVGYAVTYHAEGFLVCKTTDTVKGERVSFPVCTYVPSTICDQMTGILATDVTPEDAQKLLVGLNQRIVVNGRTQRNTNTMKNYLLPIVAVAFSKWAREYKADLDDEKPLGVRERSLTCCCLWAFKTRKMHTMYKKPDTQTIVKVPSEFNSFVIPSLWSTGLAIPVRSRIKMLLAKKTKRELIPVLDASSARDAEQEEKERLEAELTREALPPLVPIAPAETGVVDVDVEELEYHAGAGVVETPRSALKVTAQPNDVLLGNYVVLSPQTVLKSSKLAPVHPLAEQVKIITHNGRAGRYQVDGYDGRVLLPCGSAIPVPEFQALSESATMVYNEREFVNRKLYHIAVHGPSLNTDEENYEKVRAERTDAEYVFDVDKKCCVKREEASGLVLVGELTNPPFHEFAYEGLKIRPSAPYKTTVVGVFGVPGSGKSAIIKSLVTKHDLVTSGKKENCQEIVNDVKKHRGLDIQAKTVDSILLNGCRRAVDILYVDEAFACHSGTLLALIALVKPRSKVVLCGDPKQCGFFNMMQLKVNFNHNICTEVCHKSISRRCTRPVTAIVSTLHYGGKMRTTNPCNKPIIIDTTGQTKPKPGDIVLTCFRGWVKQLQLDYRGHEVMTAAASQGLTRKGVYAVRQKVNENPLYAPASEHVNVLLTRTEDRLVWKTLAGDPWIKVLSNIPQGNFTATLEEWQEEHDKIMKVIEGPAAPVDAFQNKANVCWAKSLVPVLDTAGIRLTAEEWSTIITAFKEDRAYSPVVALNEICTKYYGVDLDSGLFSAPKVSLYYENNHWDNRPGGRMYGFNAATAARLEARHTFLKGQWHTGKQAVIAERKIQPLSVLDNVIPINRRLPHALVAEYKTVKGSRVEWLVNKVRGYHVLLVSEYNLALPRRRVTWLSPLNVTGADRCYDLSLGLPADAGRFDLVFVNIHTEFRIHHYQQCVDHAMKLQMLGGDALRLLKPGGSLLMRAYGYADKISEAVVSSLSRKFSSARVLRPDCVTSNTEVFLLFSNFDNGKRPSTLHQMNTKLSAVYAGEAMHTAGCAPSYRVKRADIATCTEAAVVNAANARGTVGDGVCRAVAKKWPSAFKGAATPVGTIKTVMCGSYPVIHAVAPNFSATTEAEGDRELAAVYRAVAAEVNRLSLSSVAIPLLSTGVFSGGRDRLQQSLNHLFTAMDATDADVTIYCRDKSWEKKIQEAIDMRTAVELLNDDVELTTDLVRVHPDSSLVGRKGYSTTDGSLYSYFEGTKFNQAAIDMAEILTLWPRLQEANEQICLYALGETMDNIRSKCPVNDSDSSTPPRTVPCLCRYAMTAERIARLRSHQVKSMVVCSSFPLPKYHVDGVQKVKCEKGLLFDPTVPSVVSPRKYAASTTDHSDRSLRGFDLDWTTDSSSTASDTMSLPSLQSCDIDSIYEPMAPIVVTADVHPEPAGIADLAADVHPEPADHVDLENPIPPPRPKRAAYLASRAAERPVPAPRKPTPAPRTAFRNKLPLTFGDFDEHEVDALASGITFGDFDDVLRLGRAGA

SFV nsP4 (RdRp) with SFV P123, trans-replicase, sequence (P08411 1-1818): as the sequence (P08411 1-1818, further chain) above
SFV nsP4 (RdRp) with SFV P123, trans-replicase, sequence (P08411 1819-2431): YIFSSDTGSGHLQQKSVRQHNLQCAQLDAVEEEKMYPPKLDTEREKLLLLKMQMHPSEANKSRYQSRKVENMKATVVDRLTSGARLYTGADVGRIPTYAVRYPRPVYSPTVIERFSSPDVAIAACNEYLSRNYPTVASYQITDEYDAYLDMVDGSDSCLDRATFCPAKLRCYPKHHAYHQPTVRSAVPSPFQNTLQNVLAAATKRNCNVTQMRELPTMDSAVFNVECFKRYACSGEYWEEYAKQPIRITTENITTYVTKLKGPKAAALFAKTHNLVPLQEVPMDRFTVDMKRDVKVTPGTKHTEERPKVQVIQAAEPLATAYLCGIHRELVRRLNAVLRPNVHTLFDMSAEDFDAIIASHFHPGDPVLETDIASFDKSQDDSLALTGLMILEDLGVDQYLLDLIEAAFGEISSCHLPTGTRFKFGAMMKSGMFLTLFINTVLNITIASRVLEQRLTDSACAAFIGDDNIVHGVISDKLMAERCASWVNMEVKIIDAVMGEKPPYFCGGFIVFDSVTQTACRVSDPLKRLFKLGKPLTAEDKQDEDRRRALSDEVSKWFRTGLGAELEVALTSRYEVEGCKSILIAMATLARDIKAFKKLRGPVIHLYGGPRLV

O=c1ccn([C@@H]2O[C@](F)(CO)[C@@H](O)[C@H]2O)c(=O)[nH]1 [4′-fluorouridine]
pEC50 [1]: 5.68 | pEC50 [2]: 6.19

Source: article PMC11237586, “4′-Fluorouridine inhibits alphavirus replication and infection in vitro and in vivo” (mBio, 2024)
